This note sets out measurements from patent US11213509B2, “Compositions and methods for treating traumatic brain injury” (Ischemix, LLC, priority 2017, dated 2022).

For the test, the system named is fluid percussion model of diffused traumatic brain injury (TBI) in rats. As to the kind of experiment: Body swing test, fluid percussion model of diffused TBI. It is filed as in vivo, rat. Conditions: 45 mg/kg i.v. at 30 minutes and 24 hours after TBI; Day 28; vs vehicle, p<0.05. Here is the method: On the day before TBI surgery (Day −1), rats were anesthetized with 3% isoflurane in a mixture of nitrous oxide and oxygen (2:1) for induction of anesthesia and then maintained at 1-3% isoflurane in a mixture of nitrous oxide and oxygen (2:1). The surgical site skin was shaved, and the rat was then placed in a stereotaxic frame. Buprenorphine SR, s.c, (0.9-1.2 mg/kg Zoopharm: Lot: BSR1-142111) and Cefazolin, i.p., (40-50 mg/kg; Hospira: Lot: 101D032) was given at this time. The skull was exposed through a midline incision. A parasagittal craniotomy (5 mm) using a trephine drill was performed at 1 mm posterior to bregma and 1 mm lateral to the midline (outer circumference). […]
On the day of TBI surgery (Day 0), rats were re-anesthetized with 3% isoflurane in a mixture of nitrous oxide and oxygen (2:1), intubated, connected to a respirator and ventilated with 1-2% isoflurane in a mixture of nitrous oxide and oxygen (2:1). […] The amplitude of the resulting pressure pulse was measured in atmospheres by a pressure transducer. […]
Dosing solutions were prepared in a blinded fashion with H, I, M, O and Z labels ready to use. […]
The rat was held approximately one inch from the base of its tail. […] A swing was recorded whenever the rat moved its head out of the vertical axis to either side. The rat must have returned to the vertical position for the next swing to be counted. Thirty (30) total swings were counted. […]

Consider `CC(NC(=O)C(CCC(=O)O)NC(=O)CCCCC1CCSS1)C(=O)O` [CMX-2043, N—(R)-lipoyl-glutamylalanine], for which the “Body swing test recovery” value is recorded as “superior recovery compared to vehicle-treated animals”.
